Data on 25 molecules can be found in patent publication US10519177B2, “Heterocyclic compounds and uses thereof” (Plexxikon Inc., priority 2013, dated 2019).

Bounds are passed on as bounds.

The test system of one assay is bromodomain. Briefly: at least one of the bromodomain cell assays of Example 57. To be noted: at least one of the bromodomain cell assays described in Example 57; read-out: IC50 in at least one of the bromodomain cell assays. It counts as cell-based.
The next assay addresses BRD4-BD12 (1-477) (Homo sapiens (Human), UniProt O60885). As to the kind of experiment: Alphascreen binding assay BRD4-BD12. To be noted: BRD4(1 2) H4; read-out: Biochemical activity (IC50 μM) BRD4(1 2) H4. An outline of the steps: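 First, compound was preincubated 1 h at room temperature with the His-tagged BRD4 protein (BD1 44-164 or tandem BD12 1-477) and acetylated H4 peptide. Next, donor and acceptor beads were added at 7.5 μg/ml final. After 30 min, AlphaScreen emission was recorded.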
(In general: Alpha assays give light when donor and acceptor beads are brought close together.)

The test system of another assay is MV-4-11 cells. Briefly: Oncology cell growth assay MV-4-11 (CellTiter Glo). The assay is classed as cell-based. To be noted: Homo sapiens, MV4-11, 72 h; MV-4-11, 3d growth; read-out: Cell activity (IC50 μM) MV-4-11 3d-Growth. In short, it runs like this:
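MV-4-11 AML cells (MLL-AF4), 3000 per well, exposed to 8-point 1:3 compound titration from 10 μM top concentration (0.2% DMSO) for 72 h. Viability by CellTiter Glo luminescence, normalized to DMSO controls; pIC50 from four-parameter curve fit.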
In general terms: Cellular ATP, detected with luciferase, serves as a proxy for viable cell number.

On to `CNC(=O)Nc1ccc(-c2cn([C@@H](C)c3ccccn3)c3cc(-c4c(C)noc4C)cnc23)cc1` [P-0563, 1-[4-[6-(3,5-dimethylisoxazol-4-yl)-1-[(1S)-1-(2-pyridyl)ethyl]pyrrolo[3,2-b]pyridin-3-yl]phenyl]-3-methyl-urea], for which the IC50 (usually the concentration that inhibits the measured activity by half) is below 10000 nM with bromodomain, below 1 µM at BRD4-BD12 (1-477) and below 1 µM in the assay with MV-4-11 cells.

In the case of `Cc1noc(C)c1-c1cnc2c(-c3ccc(NC(=O)NC4CC4)cc3)cn([C@@H](C)c3ccccn3)c2c1` [P-0564, 1-cyclopropyl-3-[4-[6-(3,5-dimethylisoxazol-4-yl)-1-[(1S)-1-(2-pyridyl)ethyl]pyrrolo[3,2-b]pyridin-3-yl]phenyl]urea], the IC50 is below 10000 nM with bromodomain, below 1 µM at BRD4-BD12 (1-477) and below 1 µM in the assay with MV-4-11 cells.

Consider `COC(=O)Cc1ccc(-c2cn([C@@H](C)c3ccccn3)c3cc(-c4c(C)noc4C)cnc23)cc1` [P-0565, methyl 2-[4-[6-(3,5-dimethylisoxazol-4-yl)-1-[(1S)-1-(2-pyridyl)ethyl]pyrrolo[3,2-b]pyridin-3-yl]phenyl]acetate], for which the IC50 in the assay with bromodomain was below 10000 nM; at BRD4-BD12 (1-477), below 1 µM; with MV-4-11 cells, below 1 µM.

Regarding `Cc1noc(C)c1-c1cnc2c(-c3ccc(C(F)(F)C(=O)O)cc3)cn([C@@H](C)c3ccccn3)c2c1` [P-0566, 2,2-difluoro-2-(4-(6-(3,5-dimethylisoxazol-4-yl)-1-((S)-1-(pyridin-2-yl)ethyl)-1H-pyrrolo[3,2-b]pyridin-3-yl)phenyl)acetic acid], the IC50 in the assay on bromodomain was below 10000 nM; at BRD4-BD12 (1-477), below 1 µM; in the assay on MV-4-11 cells it was 1 to 10 µM.

Take `CC[C@@H](c1ccccc1)n1cc(-c2ccc(C(=O)O)cc2)c2ncc(-c3c(C)noc3C)cc21` [P-0567, 4-[6-(3,5-dimethylisoxazol-4-yl)-1-[(1S)-1-phenylpropyl]pyrrolo[3,2-b]pyridin-3-yl]benzoic acid]: the IC50 in the assay with bromodomain was below 10000 nM; on BRD4-BD12 (1-477), below 1 µM; in the assay on MV-4-11 cells it was below 1 µM.

With `Cc1noc(C)c1-c1cnc2c(-c3ccc(-c4nnn[nH]4)cc3)cn([C@@H](C)c3ccccn3)c2c1` [P-0568, 3,5-dimethyl-4-[1-[(1S)-1-(2-pyridyl)ethyl]-3-[4-(1H-tetrazol-5-yl)phenyl]pyrrolo[3,2-b]pyridin-6-yl]isoxazole], the values for the IC50 in the assay on bromodomain, at BRD4-BD12 (1-477) and in the assay on MV-4-11 cells were below 10000 nM, below 1 µM and below 1 µM, respectively.

`CC[C@H](c1ccccc1)n1cc(-c2ccc(C(=O)OC)cc2)c2ncc(-c3c(C)noc3C)cc21` [P-0569, methyl 4-[6-(3,5-dimethylisoxazol-4-yl)-1-[(1R)-1-phenylpropyl]pyrrolo[3,2-b]pyridin-3-yl]benzoate]: the values for the IC50 in the assay on bromodomain, at BRD4-BD12 (1-477) and in the assay with MV-4-11 cells were below 10000 nM, below 1 µM and below 1 µM, respectively.

Regarding `CC[C@H](c1ccccc1)n1cc(-c2ccc(C(=O)O)cc2)c2ncc(-c3c(C)noc3C)cc21` [P-0570, 4-[6-(3,5-dimethylisoxazol-4-yl)-1-[(1R)-1-phenylpropyl]pyrrolo[3,2-b]pyridin-3-yl]benzoic acid], the IC50 in the assay on bromodomain was below 10000 nM; on BRD4-BD12 (1-477), below 1 µM; in the assay on MV-4-11 cells, below 1 µM.

On to `[2H]C([2H])(O)c1ccc(-c2cn(CC3CCC(F)(F)CC3)c3cc(-c4c(C)noc4C)cnc23)cc1` [P-0571, dideutrio-[4-[1-[(4,4-difluorocyclohexyl)methyl]-6-(3,5-dimethylisoxazol-4-yl)pyrrolo[3,2-b]pyridin-3-yl]phenyl]methanol], for which the IC50 was below 10000 nM in the assay with bromodomain, below 1 µM at BRD4-BD12 (1-477) and below 1 µM in the assay with MV-4-11 cells.

Turning to `Cc1noc(C)c1-c1cnc2c(I)cn([C@@H](C)c3ccccn3)c2c1` [P-0572, 4-[3-iodo-1-[(1S)-1-(2-pyridyl)ethyl]pyrrolo[3,2-b]pyridin-6-yl]-3,5-dimethyl-isoxazole], the IC50 is below 10000 nM in the assay on bromodomain, below 1 µM at BRD4-BD12 (1-477) and below 1 µM with MV-4-11 cells.

For the molecule `Cc1noc(C)c1-c1cnc2c(-c3ccc(C#N)cc3)cn([C@@H](C)c3ccccn3)c2c1` [P-0573, 4-[6-(3,5-dimethylisoxazol-4-yl)-1-[(1S)-1-(2-pyridyl)ethyl]pyrrolo[3,2-b]pyridin-3-yl]benzonitrile], the figures for the IC50 in the assay with bromodomain, on BRD4-BD12 (1-477) and in the assay on MV-4-11 cells were below 10000 nM, below 1 µM and below 1 µM, respectively.

In the case of `COC(=O)c1ccc(-c2cn(C(c3ccccn3)c3ccccn3)c3cc(-c4c(C)noc4C)cnc23)cc1` [P-0574, methyl 4-[1-[bis(2-pyridyl)methyl]-6-(3,5-dimethylisoxazol-4-yl)pyrrolo[3,2-b]pyridin-3-yl]benzoate], the IC50 in the assay with bromodomain was below 10000 nM; on BRD4-BD12 (1-477), below 1 µM; with MV-4-11 cells, below 1 µM.

Turning to `Cc1noc(C)c1-c1cnc2c(I)cn(C(c3ccccn3)c3ccccn3)c2c1` [P-0575, 4-[1-[bis(2-pyridyl)methyl]-3-iodo-pyrrolo[3,2-b]pyridin-6-yl]-3,5-dimethyl-isoxazole], the IC50 in the assay on bromodomain is below 10000 nM; at BRD4-BD12 (1-477) it was below 1 µM; in the assay with MV-4-11 cells it was below 1 µM.

Take `Cc1noc(C)c1-c1cnc2c(-c3ccc(C(=O)O)cc3)cn(C(c3ccccn3)c3ccccn3)c2c1` [P-0576, 4-[1-[bis(2-pyridyl)methyl]-6-(3,5-dimethylisoxazol-4-yl)pyrrolo[3,2-b]pyridin-3-yl]benzoic acid]: the IC50 in the assay on bromodomain was below 10000 nM; at BRD4-BD12 (1-477) it was below 1 µM; in the assay on MV-4-11 cells, below 1 µM.

On to `Cc1noc(C)c1-c1cnc2c(I)cn(CC3CCCCCCC3)c2c1` [P-0577, 4-[1-(cyclooctylmethyl)-3-iodo-pyrrolo[3,2-b]pyridin-6-yl]-3,5-dimethyl-isoxazole], for which the IC50 in the assay with bromodomain is below 10000 nM; on BRD4-BD12 (1-477) it was below 1 µM; in the assay on MV-4-11 cells, below 1 µM.

`COC(=O)c1ccc(-c2cn(CC3CCCCCCC3)c3cc(-c4c(C)noc4C)cnc23)cc1` [P-0578, methyl 4-[1-(cyclooctylmethyl)-6-(3,5-dimethylisoxazol-4-yl)pyrrolo[3,2-b]pyridin-3-yl]benzoate]: the IC50 in the assay with bromodomain is below 10000 nM; at BRD4-BD12 (1-477), below 1 µM; with MV-4-11 cells, 1 to 10 µM.

Take `Cc1noc(C)c1-c1cnc2c(-c3ccc(C(=O)O)cc3)cn(CC3CCCCCCC3)c2c1` [P-0579, 4-[1-(cyclooctylmethyl)-6-(3,5-dimethylisoxazol-4-yl)pyrrolo[3,2-b]pyridin-3-yl]benzoic acid]: the IC50 is below 10000 nM with bromodomain, below 1 µM at BRD4-BD12 (1-477) and below 1 µM in the assay with MV-4-11 cells.

For `Cc1noc(C)c1-c1cnc2c(I)cn(CC3CCC4(CC3)CC4)c2c1` [P-0580, 4-[3-iodo-1-(spiro[2.5]octan-6-ylmethyl)pyrrolo[3,2-b]pyridin-6-yl]-3,5-dimethyl-isoxazole], the IC50 in the assay on bromodomain was below 10000 nM; on BRD4-BD12 (1-477), below 1 µM; in the assay with MV-4-11 cells it was below 1 µM.

For `COC(=O)c1ccc(-c2cn(CC3CCC4(CC3)CC4)c3cc(-c4c(C)noc4C)cnc23)cc1` [P-0581, methyl 4-[6-(3,5-dimethylisoxazol-4-yl)-1-(spiro[2.5]octan-6-ylmethyl)pyrrolo[3,2-b]pyridin-3-yl]benzoate], the IC50 in the assay on bromodomain is below 10000 nM; at BRD4-BD12 (1-477), below 1 µM; in the assay on MV-4-11 cells, 1 to 10 µM.

With `Cc1noc(C)c1-c1cnc2c(-c3ccc(C(=O)O)cc3)cn(CC3CCC4(CC3)CC4)c2c1` [P-0582, 4-[6-(3,5-dimethylisoxazol-4-yl)-1-(spiro[2.5]octan-6-ylmethyl)pyrrolo[3,2-b]pyridin-3-yl]benzoic acid], the IC50 with bromodomain was below 10000 nM; at BRD4-BD12 (1-477), below 1 µM; in the assay with MV-4-11 cells it was below 1 µM.

Consider `Cc1noc(C)c1-c1cnc2c(-c3ccc(C(=O)O)cc3)cn([C@H](C)c3ccccc3)c2c1` [P-0583, 4-[6-(3,5-dimethylisoxazol-4-yl)-1-[(1R)-1-phenylethyl]pyrrolo[3,2-b]pyridin-3-yl]benzoic acid], for which the figures for the IC50 with bromodomain, on BRD4-BD12 (1-477) and in the assay on MV-4-11 cells were below 10000 nM, below 1 µM and below 1 µM, respectively.

Turning to `CCNC(=O)Nc1ccc(-c2cn(CC3CCC(F)(F)CC3)c3cc(-c4c(C)noc4C)cnc23)cn1` [P-0584, 1-[5-[1-[(4,4-difluorocyclohexyl)methyl]-6-(3,5-dimethylisoxazol-4-yl)pyrrolo[3,2-b]pyridin-3-yl]-2-pyridyl]-3-ethyl-urea], the IC50 with bromodomain was below 10000 nM; at BRD4-BD12 (1-477), below 1 µM; in the assay with MV-4-11 cells it was below 1 µM.

For `COC(=O)c1ccc(-c2cn(CC3CCCCCC3)c3cc(-c4c(C)noc4C)cnc23)cc1` [P-0585, methyl 4-[1-(cycloheptylmethyl)-6-(3,5-dimethylisoxazol-4-yl)pyrrolo[3,2-b]pyridin-3-yl]benzoate], the IC50 was below 10000 nM with bromodomain, below 1 µM on BRD4-BD12 (1-477) and 1 to 10 µM in the assay on MV-4-11 cells.

For the molecule `Cc1noc(C)c1-c1cnc2c(-c3ccc(C(=O)O)cc3)cn(CC3CCCCCC3)c2c1` [P-0586, 4-[1-(cycloheptylmethyl)-6-(3,5-dimethylisoxazol-4-yl)pyrrolo[3,2-b]pyridin-3-yl]benzoic acid], the IC50 in the assay on bromodomain is below 10000 nM; on BRD4-BD12 (1-477) it was below 1 µM; in the assay on MV-4-11 cells, below 1 µM.

With `Cc1noc(C)c1-c1cnc2c(-c3ccc(CC(=O)O)cc3)cn(CC3CCCCCC3)c2c1` [P-0587, 2-[4-[1-(cycloheptylmethyl)-6-(3,5-dimethylisoxazol-4-yl)pyrrolo[3,2-b]pyridin-3-yl]phenyl]acetic acid], the IC50 is below 10000 nM in the assay on bromodomain, below 1 µM on BRD4-BD12 (1-477) and below 1 µM in the assay with MV-4-11 cells.
